Results on one compound are retold here after patent publication US12728111B2, “Electrophilic compounds and electrophilic prodrugs for treating aneurysm” (University of Pittsburgh—Of the Commonwealth System of …, priority 2020, dated 2026).

The experiment relates to RAW 264.7 cells. The experiment in a line: Boyden chamber transwell migration assay. It counts as cell-based, murine. Conditions: in the presence of Ang II; 2.5 μM, 12 hours. On the procedure:
HUVECs were seeded in the lower chambers of the Transwells (#CLS3464, Sigma-Aldrich) and cultured up to 80% confluence before treatment with or without AngII (100 nM) for 6 hours in OptiMEM I reduced serum medium (#31985-070, Gibco). RAW 264.7 cells starved with OptiMEM I overnight were seeded (2×10^5 per well) in the upper chambers of the transwells and treated with vehicle (ethanol), OA (2.5 μM) or NO2—OA (2.5 μM) for additional 12 hours. Cells on the upper chamber were then removed by gently scraping with a cotton swab, and the membranes were fixed in 4% PFA for 15 min and stained with 0.1% crystal violet for 15 min at room temperature. Images were acquired by AMG Evos XI Core Imaging System. Quantification of the positively stained area was performed using Image J v1.52s.

For the compound `CCCCCCCCC(=CCCCCCCCC(=O)O)[N+](=O)[O-]` [NO2—OA, 10-nitro-octadec-9-enoic acid], the endothelial-dependent macrophage migration result is on record as “significantly inhibits”.
